In ChEMBL document CHEMBL5518172, “Discovery of hydroxamate as a promising scaffold dually inhibiting metallo- and serine-β-lactamases” (Eur J Med Chem, 2024):
Activity calls are given as the source filed them. No cut-off for these calls is given here.

How the values were obtained:
[1] = molecular target: Metallo-beta-lactamase type 2 (Bacteria) (UniProt C7C422); test: Irreversible inhibition of recombinant NDM-1 (unknown origin) expressed in Escherichia coli BL21 (DE3) cells using meropenem as substrate assessed as reduction in residual activity at 5 uM preincubated for 6 hrs followed by dialysis and measured after 24 hrs
Metallo-beta-lactamase type 2 (Bacteria), sequence (C7C422 whole entry): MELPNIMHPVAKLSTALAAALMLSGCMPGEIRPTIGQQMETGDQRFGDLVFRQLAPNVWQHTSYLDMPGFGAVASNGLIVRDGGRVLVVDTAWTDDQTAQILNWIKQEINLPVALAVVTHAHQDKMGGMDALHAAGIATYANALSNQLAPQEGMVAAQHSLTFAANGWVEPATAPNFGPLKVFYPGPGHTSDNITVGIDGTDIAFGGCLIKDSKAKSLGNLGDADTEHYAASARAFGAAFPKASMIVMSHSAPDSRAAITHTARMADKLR

Bacteria [2] = test: Destabilization of recombinant serine beta lactamase OXA-48 (unknown origin) expressed in Escherichia coli BL21 (DE3) cells assessed as thermal stabilization by measuring melting temperature at 50 uM incubated under 25 to 80 degreeC by SYPRO orange dye based thermal shift assay (reference value: 54.6 degreeC)
Escherichia coli [3] = test: Synergistic antibacterial activity against Escherichia coli BL21 (DE3) harboring NDM-1 assessed as fold decrease in meropenem MIC at 64 microg/ml measured after 16 hrs by CLSI protocol based broth microdilution method; format: functional; settings: dose 64 µg/ml
Escherichia coli [4] = test: Antibacterial activity against Escherichia coli harboring NDM-1 infected in Kunming mouse model assessed as reduction in bacterial load in spleen at 20 mg/kg, ip; format: functional, organism-based
Bacteria [5] = test: Inhibition of recombinant serine beta lactamase OXA-48 (unknown origin) expressed in Escherichia coli BL21 (DE3) cells using cefazolin as substrate assessed as reduction in residual activity; settings: dose 0.075-20 µM
Escherichia coli [6] = test: Synergistic antibacterial activity against Escherichia coli BL21 (DE3) harboring serine beta lactamase KPC-2 assessed as meropenem MIC at 64 microg/ml measured after 16 hrs by CLSI protocol based broth microdilution method (reference value: 16 microg/ml); format: functional; settings: dose 64 µg/ml
[7] = molecular target: Metallo-beta-lactamase type 2 (Bacteria) (UniProt C7C422); test: Inhibition of recombinant NDM-1 (unknown origin) expressed in Escherichia coli BL21 (DE3) cells using meropenem as substrate assessed as reduction in residual activity; settings: dose 0.075-20 µM
Bacteria [8] = test: Inhibition of recombinant serine beta lactamase KPC-2 (unknown origin) expressed in Escherichia coli BL21 (DE3) cells using cefazolin as substrate assessed as reduction in residual activity; settings: dose 0.075-20 µM
Escherichia coli [9] = test: Antibacterial activity against Escherichia coli BL21 (DE3) harboring NDM-1 assessed as inhibition of bacterial growth upto 512 microg/ml by microdilution checkerboard assay; format: functional, organism-based; settings: dose <= 512.0 µg/ml
Escherichia coli [10] = test: Synergistic antibacterial activity against Escherichia coli BL21 (DE3) harboring metallo-beta lactamase IMP-1 assessed as fold decrease in meropenem MIC at 64 microg/ml measured after 16 hrs by CLSI protocol based broth microdilution method; format: functional; settings: dose 64 µg/ml
Klebsiella pneumoniae = test: Synergistic antibacterial activity against KPC and NDM-1 producing Klebsiella pneumoniae assessed as meropenem MIC at 64 microg/ml incubated for 16 hrs by CLSI protocol based broth microdilution method (reference value: 256 microg/ml); format: functional; settings: dose 64 µg/ml
Escherichia coli [11] = test: Synergistic antibacterial activity against Escherichia coli clinical isolate 04 assessed as meropenem MIC at 64 microg/ml measured after 16 hrs by CLSI protocol based broth microdilution method (reference value: 256 microg/ml); format: functional; settings: dose 64 µg/ml
[12] = Inhibition of recombinant metallo-beta-lactamase IMP-1 (unknown origin) expressed in Escherichia coli BL21 (DE3) cells using meropenem as substrate by spectrometric analysis; design: species or system Bacteria
Escherichia coli [13] = test: Antibacterial activity against Escherichia coli BL21 (DE3) harboring serine beta lactamase OXA-48 assessed as inhibition of bacterial growth upto 512 microg/ml by microdilution checkerboard assay; format: functional, organism-based; settings: dose <= 512.0 µg/ml
[14] = Non-competitive inhibition of recombinant serine beta lactamase KPC-2 (unknown origin) expressed in Escherichia coli BL21 (DE3) cells using meropenem as substrate assessed as inhibition constant by Lineweaver-Burk plot analysis; design: species or system Bacteria
Bacteria [15] = test: Inhibition of recombinant serine beta lactamase OXA-48 (unknown origin) expressed in Escherichia coli BL21 (DE3) cells assessed as reduction in residual activity incubated for 120 min; settings: dose 0.3-5 µM

## O=C(CCCc1ccccc1)NOC(=O)OCc1ccccc1
[1]
  inhibition: Active
Bacteria [2]
  Tm: 53.9 °C
Escherichia coli [3]
  fold change (FC): 8
Escherichia coli [4]
  Activity: inactive
Bacteria [5]
  inhibition: Dose-Dependent Effect
Escherichia coli [6]
  MIC: 4 µg/mL
[7]
  inhibition: Dose-Dependent Effect
Bacteria [8]
  inhibition: Dose-Dependent Effect
Escherichia coli [9]
  Activity: inactive
Escherichia coli [10]
  fold change (FC): 4
Klebsiella pneumoniae
  MIC: 256 µg/mL
Escherichia coli [11]
  MIC: 128 µg/mL
[12]
  IC50: 1320 nM
Escherichia coli [13]
  Activity: inactive
[14]
  Ki: 550 nM
Bacteria [15]
  inhibition: Dose-Dependent Effect
